Source: patent US6465457B1 (priority 1991, dated 2002)
Like-named read-outs stand apart in the source and are kept apart here.

What was measured:
Assay type in all cases: in vivo
[1] = test system: Puccinia recondita (Wheat); experiment: Foliar fungal disease test on plants: Puccinia recondita (Wheat)
Description: (§1) The compounds were tested against a variety of foliar fungal diseases of plants. The technique employed was as follows.
The plants were grown in John Innes Potting Compost (No 1 or 2) in 4 cm diameter minipots. The test compounds were formulated either by bead milling with aqueous DISPERSOL T or as a solution in acetone or acetone/ethanol which was diluted to the required concentration immediately before use. The formulations (100 ppm active ingredient) were sprayed on to the foliage or applied to the roots of the plants in the soil. The sprays were applied to maximum retention and the root drenches to a final concentration equivalent to approximately 40 ppm a.i. in dry soil. TWEEN 20 was added to give a final concentration of 0.05% when the sprays were applied to cereals.
[…] An exception was the test on Erysiphe graminis in which the plants were inoculated 24 hours before treatment. Foliar pathogens were applied by spray as zoosporangial suspensions onto the leaves of test plants. After inoculation, the plants were put into an appropriate environment to allow infection to proceed and then incubated until the disease was ready for assessment. The period between inoculation and assessment varied from four to fourteen days according to the disease and environment.
(§2) The disease level present (i.e. leaf area covered by actively sporulating disease) on each of the treated plants was recorded using the following assessment scale:
(§3) Each assessment was then expressed as a percentage of the level of disease present on the untreated control plants. This calculated value is referred to as a POCO (Percentage of Control) value. An example of a typical calculation is as follows:
(§4) Disease level on untreated control=90
(§5) Disese level on treated plant=30 [formula]
(§6) This calculated POCO value is then rounded to the nearest of the values in the 9-point assessment scale shown above. In this particular example, the POCO value would be rounded to 30. If the calculated POCO falls exactly mid-way between two of the points, it is rounded to the lower of the two values.

[2] = test system: Erysiphe graminis tritici (Wheat); experiment: Foliar fungal disease test on plants: Erysiphe graminis tritici (Wheat); conditions: plants inoculated 24 hours before treatment
Description: as §1
(§7) The plants were grown in John Innes Potting Compost (No 1 or 2) in 4 cm diameter minipots. The test compounds were formulated either by bead milling with aqueous DISPERSOL T or as a solution in acetone or acetone/ethanol which was diluted to the required concentration immediately before use. […] The sprays were applied to maximum retention and the root drenches to a final concentration equivalent to approximately 40 ppm a.i. in dry soil. TWEEN 20 was added to give a final concentration of 0.05% when the sprays were applied to cereals.
(§8) For most of the tests the compounds were applied to the soil (roots) or to the foliage (by spraying) one or two days before the plant was inoculated with the disease. An exception was the test on Erysiphe graminis in which the plants were inoculated 24 hours before treatment. Foliar pathogens were applied by spray as zoosporangial suspensions onto the leaves of test plants. After inoculation, the plants were put into an appropriate environment to allow infection to proceed and then incubated until the disease was ready for assessment. The period between inoculation and assessment varied from four to fourteen days according to the disease and environment.
as §2, §3, §4, §5, §6

[3] = test system: Phytophthora infestans (Tomatoes); conditions: one or two days before inoculation
[4] = test system: Pyricularia oryzae (Rice); conditions: one or two days before inoculation
[5] = test system: Plasmopara viticola (Vines); experiment: Foliar fungal disease test on plants: Plasmopara viticola (Vines); conditions: one or two days before inoculation
Description: as §1, §7, §8, §2, §3, §4, §5, §6

Septoria nodorum (Wheat) = experiment: Foliar fungal disease test on plants: Septoria nodorum (Wheat); conditions: one or two days before inoculation
Description: as §1, §7, §8, §2, §3, §4, §5, §6

[6] = test system: Venturia inaequalis (Apples); experiment: Foliar fungal disease test on plants: Venturia inaequalis (Apples); conditions: one or two days before inoculation
Description: as §1, §7, §8, §2, §3, §4, §5, §6

[7] = test system: Thanatephorus cucumeries (Rice); experiment: Foliar fungal disease test on plants: Thanatephorus cucumeries (Rice); conditions: one or two days before inoculation
Description: as §1, §7, §8, §2, §3, §4, §5, §6

[8] = 100 ppm a.i. foliar spray or root drench (approx. 40 ppm in dry soil), one or two days before inoculation
[9] = 100 ppm a.i. foliar spray or root drench (approx. 40 ppm in dry soil)
[10] = 10 ppm foliar spray only, plants inoculated with Puccinia recondita 48 hours before treatment
[11] = 100 ppm a.i. foliar spray or root drench, plants inoculated with Puccinia recondita 48 hours before treatment

## CO/C=C(/Oc1ccccc1OC(=O)NC(=O)c1ccccc1)C(=O)OC [1 (17), (E)-methyl 2-[2-((benzoyl)carbamoyloxy)phenoxy]-3-methoxypropenoate]
[1]; [8]
  POCO (Percentage of Control) disease level, Puccinia recondita (Wheat): 24 (20 and 24 = 10.1-20% disease present)
[2]; [9]
  POCO (Percentage of Control) disease level, Erysiphe graminis tritici (Wheat): 94 (90 and 94 = 60.1-100% disease present)
[3]; [9]
  POCO (Percentage of Control) disease level, Phytophthora infestans (Tomatoes): 24 (20 and 24 = 10.1-20% disease present)
[4]; [9]
  POCO (Percentage of Control) disease level, Pyricularia oryzae (Rice): 94 (90 and 94 = 60.1-100% disease present)
[5]; [9]
  POCO (Percentage of Control) disease level, Plasmopara viticola (Vines): 24 (20 and 24 = 10.1-20% disease present)
Septoria nodorum (Wheat); [9]
  POCO (Percentage of Control) disease level, Septoria nodorum (Wheat): 94 (90 and 94 = 60.1-100% disease present)
[6]; [9]
  POCO (Percentage of Control) disease level, Venturia inaequalis (Apples): 0 (0 = 0% disease present)

## COC=C(C(=O)OC)c1ccccc1COC(=O)n1ccc2ccccc21 [1 (133)]
[1]; [10]
  POCO (Percentage of Control) disease level, Puccinia recondita (Wheat): 90+ (90 and 94 = 60.1-100% disease present)
[2]; 10 ppm foliar spray only
  POCO (Percentage of Control) disease level, Erysiphe graminis tritici (Wheat): 90 (90 and 94 = 60.1-100% disease present)
[3]; 10 ppm foliar spray only
  POCO (Percentage of Control) disease level, Phytophthora infestans (Tomatoes): 90 (90 and 94 = 60.1-100% disease present)
[4]; 10 ppm foliar spray only
  POCO (Percentage of Control) disease level, Pyricularia oryzae (Rice): 90 (90 and 94 = 60.1-100% disease present)
[5]; 10 ppm foliar spray only
  POCO (Percentage of Control) disease level, Plasmopara viticola (Vines): 0 (0 = 0% disease present)
[7]; 10 ppm foliar spray only
  POCO (Percentage of Control) disease level, Thanatephorus cucumeries (Rice): 60 (60 = 30.1-60% disease present)
Septoria nodorum (Wheat); 10 ppm foliar spray only
  POCO (Percentage of Control) disease level, Septoria nodorum (Wheat): 90 (90 and 94 = 60.1-100% disease present)
[6]; 10 ppm foliar spray only
  POCO (Percentage of Control) disease level, Venturia inaequalis (Apples): 30 (30 = 20.1-30% disease present)

## CO/C=C(/C(=O)OC)c1ccccc1COC(=O)Nc1cccc(C(F)(F)F)c1 [2 (1), (E)-methyl 3-methoxy-2-[2-((3-trifluoromethylphenyl)carbamoyloxymethyl)phenyl]-propenoate]
[1]; [8]
  POCO (Percentage of Control) disease level, Puccinia recondita (Wheat): 10 (10 = 5.1-10% disease present)
[2]; [9]
  POCO (Percentage of Control) disease level, Erysiphe graminis tritici (Wheat): 60 (60 = 30.1-60% disease present)
[3]; [9]
  POCO (Percentage of Control) disease level, Phytophthora infestans (Tomatoes): 10 (10 = 5.1-10% disease present)
[4]; [9]
  POCO (Percentage of Control) disease level, Pyricularia oryzae (Rice): 5 (5 = 3.1-5% disease present)
[5]; [9]
  POCO (Percentage of Control) disease level, Plasmopara viticola (Vines): 10 (10 = 5.1-10% disease present)
[7]; [9]
  POCO (Percentage of Control) disease level, Thanatephorus cucumeries (Rice): 60 (60 = 30.1-60% disease present)
Septoria nodorum (Wheat); [9]
  POCO (Percentage of Control) disease level, Septoria nodorum (Wheat): 20 (20 and 24 = 10.1-20% disease present)
[6]; [9]
  POCO (Percentage of Control) disease level, Venturia inaequalis (Apples): 0 (0 = 0% disease present)

## COC=C(C(=O)OC)c1ccccc1COC(=O)N(C)c1cccc(C(F)(F)F)c1 [2 (2)]
[1]; [8]
  POCO (Percentage of Control) disease level, Puccinia recondita (Wheat): 0 (0 = 0% disease present)
[2]; [9]
  POCO (Percentage of Control) disease level, Erysiphe graminis tritici (Wheat): 0 (0 = 0% disease present)
[3]; [9]
  POCO (Percentage of Control) disease level, Phytophthora infestans (Tomatoes): 90 (90 and 94 = 60.1-100% disease present)
[4]; [9]
  POCO (Percentage of Control) disease level, Pyricularia oryzae (Rice): 5 (5 = 3.1-5% disease present)
[5]; [9]
  POCO (Percentage of Control) disease level, Plasmopara viticola (Vines): 0 (0 = 0% disease present)
[7]; [9]
  POCO (Percentage of Control) disease level, Thanatephorus cucumeries (Rice): 30 (30 = 20.1-30% disease present)
Septoria nodorum (Wheat); [9]
  POCO (Percentage of Control) disease level, Septoria nodorum (Wheat): 0 (0 = 0% disease present)
[6]; [9]
  POCO (Percentage of Control) disease level, Venturia inaequalis (Apples): 0 (0 = 0% disease present)

## COC=C(C(=O)OC)c1ccccc1COC(=S)Nc1cccc(C(F)(F)F)c1 [2 (6)]
[1]; [8]
  POCO (Percentage of Control) disease level, Puccinia recondita (Wheat): 30 (30 = 20.1-30% disease present)
[2]; [9]
  POCO (Percentage of Control) disease level, Erysiphe graminis tritici (Wheat): 60 (60 = 30.1-60% disease present)
[3]; [9]
  POCO (Percentage of Control) disease level, Phytophthora infestans (Tomatoes): 60 (60 = 30.1-60% disease present)
[4]; [9]
  POCO (Percentage of Control) disease level, Pyricularia oryzae (Rice): 5 (5 = 3.1-5% disease present)
[5]; [9]
  POCO (Percentage of Control) disease level, Plasmopara viticola (Vines): 30 (30 = 20.1-30% disease present)
[7]; [9]
  POCO (Percentage of Control) disease level, Thanatephorus cucumeries (Rice): 90 (90 and 94 = 60.1-100% disease present)
Septoria nodorum (Wheat); [9]
  POCO (Percentage of Control) disease level, Septoria nodorum (Wheat): 60 (60 = 30.1-60% disease present)
[6]; [9]
  POCO (Percentage of Control) disease level, Venturia inaequalis (Apples): 3 (3 = 1.1-3% disease present)

## COC=C(C(=O)OC)c1ccccc1COC(=O)Nc1cccc(SC)c1 [10 (1)]
[1]; [10]
  POCO (Percentage of Control) disease level, Puccinia recondita (Wheat): 90+ (90 and 94 = 60.1-100% disease present)
[2]; 10 ppm foliar spray only
  POCO (Percentage of Control) disease level, Erysiphe graminis tritici (Wheat): 90 (90 and 94 = 60.1-100% disease present)
[3]; 10 ppm foliar spray only
  POCO (Percentage of Control) disease level, Phytophthora infestans (Tomatoes): 90 (90 and 94 = 60.1-100% disease present)
[5]; 10 ppm foliar spray only
  POCO (Percentage of Control) disease level, Plasmopara viticola (Vines): 90 (90 and 94 = 60.1-100% disease present)
[7]; 10 ppm foliar spray only
  POCO (Percentage of Control) disease level, Thanatephorus cucumeries (Rice): 90 (90 and 94 = 60.1-100% disease present)
Septoria nodorum (Wheat); 10 ppm foliar spray only
  POCO (Percentage of Control) disease level, Septoria nodorum (Wheat): 90 (90 and 94 = 60.1-100% disease present)
[6]; 10 ppm foliar spray only
  POCO (Percentage of Control) disease level, Venturia inaequalis (Apples): 0 (0 = 0% disease present)

## CCN(C(=O)OCc1ccccc1C(=COC)C(=O)OC)c1ccc(F)c(Cl)c1 [104 (3)]
[1]; [11]
  POCO (Percentage of Control) disease level, Puccinia recondita (Wheat): 0+ (0 = 0% disease present)
[2]; [9]
  POCO (Percentage of Control) disease level, Erysiphe graminis tritici (Wheat): 0 (0 = 0% disease present)
[3]; [9]
  POCO (Percentage of Control) disease level, Phytophthora infestans (Tomatoes): 10 (10 = 5.1-10% disease present)
[5]; [9]
  POCO (Percentage of Control) disease level, Plasmopara viticola (Vines): 0 (0 = 0% disease present)
[7]; [9]
  POCO (Percentage of Control) disease level, Thanatephorus cucumeries (Rice): 0 (0 = 0% disease present)
Septoria nodorum (Wheat); [9]
  POCO (Percentage of Control) disease level, Septoria nodorum (Wheat): 10 (10 = 5.1-10% disease present)
[6]; [9]
  POCO (Percentage of Control) disease level, Venturia inaequalis (Apples): 0 (0 = 0% disease present)

## COC=C(C(=O)OC)c1ccccc1COC(=O)N(C)c1cccc([N+](=O)[O-])c1F [106 (2)]
[1]; [11]
  POCO (Percentage of Control) disease level, Puccinia recondita (Wheat): 30+ (30 = 20.1-30% disease present)
[2]; [9]
  POCO (Percentage of Control) disease level, Erysiphe graminis tritici (Wheat): 0 (0 = 0% disease present)
[3]; [9]
  POCO (Percentage of Control) disease level, Phytophthora infestans (Tomatoes): 60 (60 = 30.1-60% disease present)
[5]; [9]
  POCO (Percentage of Control) disease level, Plasmopara viticola (Vines): 0 (0 = 0% disease present)
[7]; [9]
  POCO (Percentage of Control) disease level, Thanatephorus cucumeries (Rice): 0 (0 = 0% disease present)
Septoria nodorum (Wheat); [9]
  POCO (Percentage of Control) disease level, Septoria nodorum (Wheat): 30 (30 = 20.1-30% disease present)
[6]; [9]
  POCO (Percentage of Control) disease level, Venturia inaequalis (Apples): 0 (0 = 0% disease present)

## CCN(C(=O)OCc1ccccc1C(=COC)C(=O)OC)c1cccc([N+](=O)[O-])c1F [106 (3)]
[1]; [11]
  POCO (Percentage of Control) disease level, Puccinia recondita (Wheat): 60+ (60 = 30.1-60% disease present)
[2]; [9]
  POCO (Percentage of Control) disease level, Erysiphe graminis tritici (Wheat): 30 (30 = 20.1-30% disease present)
[3]; [9]
  POCO (Percentage of Control) disease level, Phytophthora infestans (Tomatoes): 90 (90 and 94 = 60.1-100% disease present)
[5]; [9]
  POCO (Percentage of Control) disease level, Plasmopara viticola (Vines): 0 (0 = 0% disease present)
[7]; [9]
  POCO (Percentage of Control) disease level, Thanatephorus cucumeries (Rice): 0 (0 = 0% disease present)
Septoria nodorum (Wheat); [9]
  POCO (Percentage of Control) disease level, Septoria nodorum (Wheat): 60 (60 = 30.1-60% disease present)
[6]; [9]
  POCO (Percentage of Control) disease level, Venturia inaequalis (Apples): 0 (0 = 0% disease present)
